# Source: publication PMC9152369, “Integrated UPLC-Q-TOF-MS/MS and Network Pharmacology Approach to Investigating the Metabolic Profile of Marein of Coreopsis tinctoria Nutt” (Evidence-based Complementary and Alternative Medicine : eCAM, 2022)
# Values joined by “and” are separate entries in the source; they are usually repeats but may differ in a detail not shown here. Equal values may be shown once. “Also recorded” adds a separate entry of the source.
# Tests used:
# [1] = Detection of marein and metabolites in rat plasma and urine after oral administration (UPLC-Q-TOF-MS/MS); type: in vivo, Sprague–Dawley rats; set-up: key to Location (matrix in which the metabolite was detected): P: plasma; U: urine; details: for Location (matrix in which the metabolite was detected): oral gavage of marein 200 mg/kg, plasma 0-1 h, urine 24 h
# Method: (§1) Forty-eight healthy male Sprague–Dawley rats, SPF grade, weighing 250 ± 10 g, were purchased from Huafukang Laboratory Animal Technology Co. Ltd. (Beijing, China). Before use, all animals were reared for 5 days at a constant temperature of 25°C, a humidity of 40–60%, and a 12-hour light-dark cycle.
# After adaptive feeding for 1 week, 24 SD rats were randomly divided into 4 groups: blank blood sample group, blank urine group, marein blood sample group, and marein urine group. The experimental animals were fasted 12 hours before the administration and free drinking water. Marein was dissolved with an appropriate amount of CMC-Na solution and was administered to SD rats by gavage at a dose of 200 mg/kg. The blank blood sample group was given an equal volume of CMC-Na solution.
# (§2) Blood samples were collected from the fundus venous plexus of rats at 0, 0.08, 0.25, 0.5, and 1 h before and after gavage and injection. The blood samples were centrifuged (9,900 g, 10 min) to obtain plasma samples. All plasma samples were stored at −80°C until they were processed and analyzed.
# (§3) Urine samples were collected for 24 hours by gavage and injection in a metabolic cage. All urine samples were stored at −80°C until they were processed and analyzed.
# (§4) Take 100 μL of plasma from each group at the same time point and combine, add 900 μL of acetonitrile, vortex for 3 min, and centrifuge (4°C, 19,500 g) for 10 min. Take the supernatant, blow-dry, and concentrate and then add 900 μL of acetonitrile. Vortex for 3 minutes and then centrifuge (4°C, 19,500 g) for 10 minutes. Take the supernatant, dry it with nitrogen, and concentrate. Add 100 μL of 50% methanol to reconstitute the residue (methanol:water = 1:1), vortex, and centrifuge (4°C, 19,500 g) for 10 minutes. The supernatant was taken and analyzed by UPLC-Q-TOF-MS/MS. The blank plasma sample was processed in the same way.
# (§5) Take 400 μL of urine, add 800 μL of methanol, vortex for 3 minutes, and centrifuge (4°C, 19,500 g) for 10 minutes. Take the supernatant, blow-dry, and concentrate and then add 800 μL of methanol to reconstitute, vortex for 3 minutes, and centrifuge (4°C, 19,500 g) for 10 minutes. In parallel, the supernatants were combined, dried, concentrated with nitrogen, and finally reconstituted with 100 μL 50% methanol (methanol:water = 1:1). The supernatant was analyzed by UPLC-Q-TOF-MS/MS. The blank urine sample was processed in the same way.
# Used UPLC-Q-TOF-MS/MS 9030 system (Shimadzu, Japan), chromatography column: Shim-pack GISS C18 column (100 × 2.1 mm, 1.9 μm). […]
# (§6) The data obtained by UPLC-Q-TOF-MS/MS were analyzed with Formula Predictor Server software. Target fragments are analyzed by ACD/Labs software accurate mass calculator (Shimadzu City, Japan).
# [2] = Detection of marein and metabolites in rat plasma and urine after tail vein injection (UPLC-Q-TOF-MS/MS); type: in vivo, Sprague–Dawley rats; set-up: key to Location (matrix in which the metabolite was detected): P: plasma; U: urine; details: for Location (matrix in which the metabolite was detected): tail vein injection of marein 10 mg/kg, plasma 0-1 h, urine 24 h; for prototype components after tail vein injection: tail vein injection 10 mg/kg
# Method: as §1
# After adaptive feeding of 24 SD rats for 1 week, they were randomly divided into 4 groups, namely: blank blood sample group, blank urine group, marein blood sample group, and marein urine group. The experimental animals were fasted 12 hours before the administration and free drinking water. Marein was dissolved in appropriate amounts of saline and administered to SD rats via tail vein injection at a dose of 10 mg/kg. The blank group was injected with an equal volume of saline through the tail vein.
# as §2, §3, §4, §5
# (§7) Used UPLC-Q-TOF-MS/MS 9030 system (Shimadzu, Japan), chromatography column: Shim-pack GISS C18 column (100 × 2.1 mm, 1.9 μm). Mobile phase: A phase 0.1% formic acid water, B phase acetonitrile, gradient elution, elution gradient: 0∼1 min, 5∼10% B; 1∼2 min, 10% B; 2∼3 min, 10∼15% B; 3∼5 min, 15∼20% B; 5∼11 min, 20∼40% B; 11∼13 min, 40∼80% B; 13∼15 min, 80∼95% B; 15∼17 min, 95% B; 17∼20 min, 5% B. Flow rate: 0.3 mL/min; column temperature: 40°C.
# (§8) MS operation conditions were as follows. The Q-TOF-MS spectrometer was configured with an electrospray ion source (ESI) operating in the negative and positive ion modes. Ion source interface voltage is −3.0 Kv. Nitrogen is used as the drying gas and the atomizing gas. The drying gas flow rate is set to 10 L/min, and the atomizing gas flow rate is set to 3.0 L/min. Air is used as heating gas, and the flow rate is set to 10 L/min; argon is used as collision gas; desolvent tube temperature is 250°C; heating block temperature is 400°C; and interface temperature is 300°C. Scan modes are MS Scan (m/z 100–500; 500–1,000) and MS/MS (m/z 50–500; 50–1,000). The collision energy (CE) is 35 ± 17 V.
# as §6
# [3] = Metabolic stability of marein in rat liver microsome incubation; type: in vitro ADME; details: for Area% (remaining percentage): 37°C, NADPH
# Method: The total volume of the incubation system is 500 μL, including phosphate buffer (0.1 M, pH 7.4) 470 μL, and NADPH generating system 30 μL (Solution A: 25 μL and Solution B: 5 μL). The process is completed on an ice bath.
# Marein blank control group: Take the above incubation system, add 5 μL of aqueous solution to an ice bath, incubate at 37°C for 5 min, and then add 15 μL of liver microsomes to the ice bath. After gently mixing the incubation system by hand, start the incubation at 37°C in a water bath. The incubation time is 0, 5, 15, 30, 45, 60, 90, and 120 min, and each sample is paralleled 3 times. When the reaction is complete, stop the reaction with the same volume of ice acetonitrile to completely precipitate the protein, centrifuge at 4,200 g for 10 min, aspirate the supernatant and centrifuge at 19,500 g for 10 min, and inject 2 μL for analysis.
# Marein inactivated liver microsomes group: First inactivate liver microsomes, take the incubation system, add 5 μL of the marein reference substance stock solution on an ice bath, incubate at 37°C for 5 min, and then add 15 μL of inactivation to the ice bath. The following procedures were similar to the blank control group.
# Marein liver microsomes group: Take the incubation system, add 5 μL of the marein reference substance stock solution to an ice bath, incubate at 37°C for 5 min, and then add 15 μL of liver microsomes to the ice bath. The following operation was the same as the blank control group.
# as §7, §8
# In the study of metabolism in vivo, the injection volume was 5 μL, while that in vitro metabolism was 2 μL.
# In the liver microsomes study, the 0 min peak area of marein was regarded as 100%, and other time points were compared with the 0 min peak area to obtain the remaining percentage (area%). According to the natural logarithm of area% and incubation, the time slope k was obtained by linear regression. According to formula (1), the half-life t1/2/min of marein in liver microsomes could be obtained. According to formulas (2)–(5), the half-lives in liver microsomes, intrinsic clearance rate CLint, in vivo intrinsic clearance rate CL′int, liver clearance rate CLH, and liver extraction rate ER were calculated.(1) t1/2=−0.693/k, (2) CLint=0.693/t1/2incubationmL/microsomesmg, (3) CLint′=0.693/t1/2·incubationmL/microsomesmg·Liverg/BWkg·microsmesmg/Liverg, (4) CLH=Q·CLint′/Q+CLint′, (5) ER=CLH/Q.
# The physical and chemical parameters: The liver tissue per kilogram of body weight for rat (Liver (g)/BW (kg)) was 40 g. Q is hepatic blood flow (66 ml/min/kg for rat), and CL′int is the intrinsic clearance. The microsomal protein per gram of liver tissue (microsomes (mg)/liver (g)) was 45 mg.
# [4] = set-up: method as in PMID 27387397; details: healthy volunteers, tea of C. tinctoria; cited from earlier work
compound,measurement,setting,value
O=c1cc(-c2ccc(O)c(O)c2)oc2c(O)c(O[C@@H]3O[C@H](CO)[C@@H](O)[C@H](O)[C@H]3O)ccc12 [M13],Location (matrix in which the metabolite was detected),[1],P
same,Location (matrix in which the metabolite was detected),[2]; listed as M′10,"P, U"
"O=C(/C=C/c1ccc(O)c(O)c1)c1ccc(O)c(O)c1O [M24, okanin]",Location (matrix in which the metabolite was detected),[1],P
same,Location (matrix in which the metabolite was detected),[2],U
"O=C1C[C@@H](c2ccc(O)c(O)c2)Oc2c1ccc(O[C@@H]1O[C@H](CO)[C@@H](O)[C@H](O)[C@H]1O)c2O [M′1, flavanomarein]",prototype components after tail vein injection,[2],detected
same,Location (matrix in which the metabolite was detected),[2],"P, U"
O=C(/C=C/c1cccc(O)c1)c1ccc(O[C@@H]2O[C@H](CO)[C@@H](O)[C@H](O)[C@H]2O)c(O)c1O [M′11],Location (matrix in which the metabolite was detected),[2],U
O=C(/C=C/c1ccc(O)cc1)c1ccc(O[C@@H]2O[C@H](CO)[C@@H](O)[C@H](O)[C@H]2O)c(O)c1O [M′12],Location (matrix in which the metabolite was detected),[2],U
O=C(/C=C/c1ccc(O)c(O)c1)c1ccc(O[C@@H]2O[C@H](CO)[C@@H](O)[C@H](O)[C@H]2O)cc1O [M′13],Location (matrix in which the metabolite was detected),[2],"P, U"
O=C(CCc1ccccc1)c1ccc(O[C@@H]2O[C@H](CO)[C@@H](O)[C@H](O)[C@H]2O)c(O)c1O [M′17],Location (matrix in which the metabolite was detected),[2],U
O=C(/C=C/c1ccc(O)c(O)c1)c1ccc(O[C@@H]2O[C@H](CO)[C@@H](O)[C@H](O)[C@H]2O)c(O)c1O [marein],CLint (intrinsic clearance rate),[3]; SD rat liver microsomes,0.0065 mL·(min·mg protein)^−1
same,t1/2 (in vitro metabolic half-life in liver microsomes),[3]; SD rat liver microsomes,2.961538 h
same,ER (liver extraction rate),"[3]; SD rat, ER=CLH/Q",0.15 and 0.1506
same,CLH (liver clearance rate),"[3]; SD rat, Q 66 ml/min/kg",9.9382 mL·min/kg
same,CL′int (in vivo intrinsic clearance rate),"[3]; SD rat, scaled with 40 g liver/kg, 45 mg microsomal protein/g liver",11.7000 mL·min/kg
same,half-life,"[3]; SD, rat, liver microsomes, pH 7.4, SD rat liver microsomes, read-out: t1/2 (in vitro metabolic half-life in liver microsomes)",2.96 h
same,Ln (area%),[3]; incubation 0 min,4.61
same,Area% (remaining percentage),"[3]; incubation 0 min, 0 min regarded as 100%",100%
same,Ln (area%),[3]; incubation 5 min,4.59
same,Area% (remaining percentage),[3]; incubation 5 min,98.69%
same,Ln (area%),[3]; incubation 15 min,4.46
same,Area% (remaining percentage),[3]; incubation 15 min,86.70%
same,Ln (area%),[3]; incubation 30 min,4.41
same,Area% (remaining percentage),[3]; incubation 30 min,82.34%
same,Ln (area%),[3]; incubation 45 min,4.36
same,Area% (remaining percentage),[3]; incubation 45 min,77.93%
same,Ln (area%),[3]; incubation 60 min,4.22
same,Area% (remaining percentage),[3]; incubation 60 min,68.01%
same,Ln (area%),[3]; incubation 90 min,4.21
same,Area% (remaining percentage),[3]; incubation 90 min,67.21%
same,Ln (area%),[3]; incubation 120 min,4.14
same,Area% (remaining percentage),[3]; incubation 120 min,62.76%
same,metabolic stability in liver microsomes,[3]; rat liver microsomes,good
same,prototype in plasma and urine after gavage,"[1]; oral gavage 200 mg/kg, 200 mg/kg",no prototype components were found; also recorded: not detected in the original form
same,marein in plasma after intragastric administration,[1]; preliminary experiments of the team,no marein was found in plasma
same,prototype components after tail vein injection,[2],detected
same,Location (matrix in which the metabolite was detected),[2],"P, U"
same,marein in blood after drinking C. tinctoria tea,[4],no marein is detected
